Data taken from patent publication US20250154138A1, “Small Molecule IL-17A Modulators” (BeiGene, Ltd., priority 2022, published 2025).
Where two headings read alike, the source gives them in different places.

Experiments:
[1] = biological target: human IL-17A / human IL-17RA (Homo sapiens (Human), UniProt Q16552); assay: Human IL-17A biochemical assay (HTRF, blocking of IL-17A binding to IL-17RA); conditions: 0.4 nM IL-17A, 0.3 nM IL-17RA, max compound concentration 10 uM
Protocol: Compounds disclosed herein were tested for blocking of human IL-17A (Cat: C774, novoprotein) protein with its receptor human IL-17RA (Cat: C153, novoprotein) in an assay based on Homogeneous Time Resolved Fluorescence. 0.4 nM recombinant human IL-17A protein was pre-incubated with a serial dilution of compounds disclosed herein (maximum concentration is 10 uM, 2.7-fold serially diluted, 10 points) at room temperature for 3 hours in an assay buffer containing 20 mM HEPES, pH 7.5, 50 mM NaCl, 0.1% BSA, 0.2 mM DTT, 0.005% Tween 20. Then 0.3 nM recombinant human IL-17RA was added to plate and further incubated at room temperature for 1 hour. After that Mab Anti-6His Tb cryptate Gold (Cat: 61HI2TLB, Cisbio Bioassays) and MAb Anti Human IgG-XL665 (Cat: 61HFCXLB, Cisbio Bioassays) were added to plate and further incubated at room temperature for 1 hour. The HTRF signals (ex337 nm, em620 nm/665 nm) were read on BMG PHERAstar FSX instrument. The inhibition percentage of human IL-17A interaction with its receptor human IL-17RA in presence of increasing concentrations of compounds was calculated based on the ratio of […]. The IC50 for each compound was derived from fitting the data to the four-parameter logistic equation by Dotmatics.

[2] = test system: IL-17-induced GROα secretion from HT-29 cells; assay: GROα release assay in human colorectal adenocarcinoma epithelial cell (HT-29, ELISA); assay type: cell-based; conditions: 10 ng/mL IL-17A, highest concentration 10 μM, read-out: Cellular assay HT29 cell/CXCL1 IC50
Protocol: The purpose of the assay is to test the ability of a compound to neutralize IL17A proteins. IL17 can stimulate human epithelial cells to secrete GROα. The ability of one compound of the invention to neutralize IL-17-induced GROα secretion from the human colorectal adenocarcinoma epithelia cell line HT-29 is tested in this assay.
HT-29 cells (human colorectal adenocarcinoma epithelia cell, ATCC) were stimulated with IL-17A (Novoprotein, #C774) in final concentration of 10 ng/mL. The resultant GROα response was measured using an ELISA kit from Invitrogen (#88-52122). HT-29 cells were cultured in complete medium (McCoy's 5A medium+10% FBS) and maintained in a tissue culture flask using standard techniques. On day 1, detached the cell by using TrypLE (Gibco, #12605036) and used the complete medium to neutralize. The cells were centrifuged at 11,00 rmp for 4 minutes. Re-suspended the cell pellet in complete medium and seeded 50,000 HT-29 cells into the 96-well assay plate (Corning, 3599) at 135 μL complete medium per well. The cells were incubated for overnight, at 37° C./5% CO2 to adherent the plate. On day 2, prepared a 4-fold serial dilution of the tested compound in DMSO. The highest concentration of the compound was 10 μM. Transferred 2 μL of the serial diluted compound from the serial dilution plate into the reagent plate which was contained 198 μL complete medium with 100 ng/mL IL-17A per well. The compounds were incubated with the IL-17A for 15 minutes. 15 μL mixtures from reagent plate were transferred into the cell assay plate. Incubated the plate at 37° C./5% CO2 for 48 hours. After the incubation, on day 4, GROα level were measured with GROα ELISA as the manufacturer's instructions. 50 μL supernatant was collected form the assay plate to ELISA plate. ELISA plate was read at 450 nm on a microplate reader and compared to a standard calibration curve.
Data were processed using GraphPad Prism. GROα concentration was calculated from the standard curve. IC50 was determined using the equation log concentration (inhibitor) against response and fitted to four parameters.

Chain of human IL-17A / human IL-17RA (Q16552 24-155): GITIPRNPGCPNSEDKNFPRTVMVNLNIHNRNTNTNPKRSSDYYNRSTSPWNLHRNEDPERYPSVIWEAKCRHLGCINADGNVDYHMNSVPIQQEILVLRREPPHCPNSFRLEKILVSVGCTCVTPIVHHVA

Row | SMILES | IC50 [1] [nM] | IC50 ([2]; Homo sapiens, HT-29, 48 h) [nM] | IC50 ([2]; 48 hours) [nM]
1 | CNC(=O)C1(N2CC(C(C)c3ccccc3)NC2=O)Cc2ccc(NC(=O)[C@@H](NC(=O)c3ccnn3C)C3CCCCC3)cc2C1 (stereo partly drawn) [Example 48, N-((1S)-1-cyclohexyl-2-((2-(methylcarbamoyl)-2-(2-oxo-4-(1-phenylethyl)imidazolidin-1-yl)-2,3-dihydro-1H-inden-5-yl)amino)-2-oxoethyl)-1-methyl-1H-pyrazole-5-carboxamide] | 161 | 1270 | –
2 | CNC(=O)C1(N2CC3(CC3)CNC2=O)Cc2ccc(NC(=O)[C@@H](NC(=O)c3ccnn3C)C(C3CC3)C3CC3)cc2C1 (stereo partly drawn) [Example 114, N-((2S)-1,1-dicyclopropyl-3-((2-(methylcarbamoyl)-2-(6-oxo-5,7-diazaspiro[2.5]octan-5-yl)-2,3-dihydro-1H-inden-5-yl)amino)-3-oxopropan-2-yl)-1-methyl-1H-pyrazole-5-carboxamide] | 73.9 | 57.2 | –
3 | CNC(=O)C1(N2C[C@@H](C(C)C)NC2=O)Cc2ccc(NC(=O)[C@@H](NC(=O)c3ccnn3C(C)C)C(C3CC3)C3CC3)cc2C1 (stereo partly drawn) [Example 91, N-((2S)-1,1-dicyclopropyl-3-((2-((R)-4-isopropyl-2-oxoimidazolidin-1-yl)-2-(methylcarbamoyl)-2,3-dihydro-1H-inden-5-yl)amino)-3-oxopropan-2-yl)-1-isopropyl-1H-pyrazole-5-carboxamide] | 71 | 43 | –
4 | CC(C)[C@@H]1CN(C2(C(=O)NC34CC5CC(CC(C5)C3)C4)Cc3ccc(NC(=O)[C@@H](NC(=O)c4ccnn4C)C4CCCCC4)cc3C2)C(=O)N1 (stereo partly drawn) [Example 155, N-((1S)-2-((2-(((3R,5R)-adamantan-1-yl)carbamoyl)-2-((R)-4-isopropyl-2-oxoimidazolidin-1-yl)-2,3-dihydro-1H-inden-5-yl)amino)-1-cyclohexyl-2-oxoethyl)-1-methyl-1H-pyrazole-5-carboxamide] | 129 | 211 | –
5 | Cc1nonc1C(=O)N[C@H](C(=O)Nc1ccc2c(c1)CC(c1nc3ccccc3[nH]1)(N1CC3(CC3)CNC1=O)C2)C1CCC(F)(F)CC1 (stereo partly drawn) [Example 184, N-((1S)-2-((2-(1H-benzo[d]imidazol-2-yl)-2-(6-oxo-5,7-diazaspiro[2.5]octan-5-yl)-2,3-dihydro-1H-inden-5-yl)amino)-1-(4,4-difluorocyclohexyl)-2-oxoethyl)-4-methyl-1,2,5-oxadiazole-3-carboxamide] | 151 | 57.3 | –
6 | CC(C)[C@@H]1CN(C2(C(=O)NC(CO)C3CCCC3)Cc3ccc(NC(=O)[C@@H](NC(=O)c4ccnn4C)C4CCCCC4)cc3C2)C(=O)N1 (stereo partly drawn) [Example 107, N-((1S)-1-cyclohexyl-2-((2-((1-cyclopentyl-2-hydroxyethyl)carbamoyl)-2-((R)-4-isopropyl-2-oxoimidazolidin-1-yl)-2,3-dihydro-1H-inden-5-yl)amino)-2-oxoethyl)-1-methyl-1H-pyrazole-5-carboxamide] | 25 | 34.5 | –
7 | CNC(=O)C1(N2C[C@@H](C(C)C)NC2=O)Cc2ccc(NC(=O)[C@@H](NC(=O)c3ccccc3)C3CCCCC3)cc2C1 (stereo partly drawn) [Example 54, 5-((S)-2-benzamido-2-cyclohexylacetamido)-2-((R)-4-isopropyl-2-oxoimidazolidin-1-yl)-N-methyl-2,3-dihydro-1H-indene-2-carboxamide] | 24 | 137 | –
8 | Cc1nonc1C(=O)N[C@H](C(=O)Nc1ccc2c(c1)CC(C(=O)Nc1ccccc1C(F)F)(N1C[C@@H](C(C)C)NC1=O)C2)C(C1CC1)C1CC1 (stereo partly drawn) [Example 268, N-((2S)-1,1-dicyclopropyl-3-((2-((2-(difluoromethyl)phenyl)carbamoyl)-2-((R)-4-isopropyl-2-oxoimidazolidin-1-yl)-2,3-dihydro-1H-inden-5-yl)amino)-3-oxopropan-2-yl)-4-methyl-1,2,5-oxadiazole-3-carboxamide] | 88.1 | 248 | –
9 | COc1ccccc1NCC1(N2CC3(CC3)CNC2=O)Cc2ccc(NC(=O)[C@@H](NC(=O)c3ccnn3C)C3CCCCC3)cc2C1 (stereo partly drawn) [Example 173, N-((1S)-1-cyclohexyl-2-((2-(((2-methoxyphenyl)amino)methyl)-2-(6-oxo-5,7-diazaspiro[2.5]octan-5-yl)-2,3-dihydro-1H-inden-5-yl)amino)-2-oxoethyl)-1-methyl-1H-pyrazole-5-carboxamide] | – | 153 | –
10 | Cc1nonc1C(=O)N[C@H](C(=O)Nc1ccc2c(c1)CC(N1C[C@@H](C(C)C)NC1=O)(C(C)(O)C(F)(F)F)C2)C(C1CC1)C1CC1 (stereo partly drawn) [Example 250, N-((2S)-1,1-dicyclopropyl-3-((2-((R)-4-isopropyl-2-oxoimidazolidin-1-yl)-2-(1,1,1-trifluoro-2-hydroxypropan-2-yl)-2,3-dihydro-1H-inden-5-yl)amino)-3-oxopropan-2-yl)-4-methyl-1,2,5-oxadiazole-3-carboxamide] | – | 190 | 271
11 | CNC(=O)C1(N2C[C@@H](C(C)C)NC2=O)Cc2ccc(NC(=O)[C@@H](NC(=O)c3ccnn3C)C3CCOCC3)cc2C1 (stereo partly drawn) [Example 85, N-((1S)-2-((2-((R)-4-isopropyl-2-oxoimidazolidin-1-yl)-2-(methylcarbamoyl)-2,3-dihydro-1H-inden-5-yl)amino)-2-oxo-1-(tetrahydro-2H-pyran-4-yl)ethyl)-1-methyl-1H-pyrazole-5-carboxamide] | 10100 | – | –
12 | Cc1nonc1C(=O)N[C@H](C(=O)Nc1ccc2c(c1)CC(C(=O)Nc1ccc(C(F)(F)F)c(Cl)c1)(N1C[C@@H](C(C)C)NC1=O)C2)C(C1CC1)C1CC1 (stereo partly drawn) [Example 260, N-((2S)-1-((2-((3-chloro-4-(trifluoromethyl)phenyl)carbamoyl)-2-((R)-4-isopropyl-2-oxoimidazolidin-1-yl)-2,3-dihydro-1H-inden-5-yl)amino)-3,3-dicyclopropyl-1-oxopropan-2-yl)-4-methyl-1,2,5-oxadiazole-3-carboxamide] | > 10000 | – | –
13 | CNC(=O)C1(N2C[C@@H](C(C)C)NC2=O)Cc2ccc(NC(=O)[C@@H](NC(=O)c3ccnn3C)C3CCC3)cc2C1 (stereo partly drawn) [Example 45, N-((1S)-1-cyclobutyl-2-((2-((R)-4-isopropyl-2-oxoimidazolidin-1-yl)-2-(methylcarbamoyl)-2,3-dihydro-1H-inden-5-yl)amino)-2-oxoethyl)-1-methyl-1H-pyrazole-5-carboxamide] | 5130 | – | –
14 | Cc1nonc1C(=O)N[C@H](C(=O)Nc1ccc2c(c1)CC(C(=O)Nc1cc(Cl)cc(Cl)c1)(N1C[C@@H](C(C)C)NC1=O)C2)C(C1CC1)C1CC1 (stereo partly drawn) [Example 265, N-((2S)-1,1-dicyclopropyl-3-((2-((3,5-dichlorophenyl)carbamoyl)-2-((R)-4-isopropyl-2-oxoimidazolidin-1-yl)-2,3-dihydro-1H-inden-5-yl)amino)-3-oxopropan-2-yl)-4-methyl-1,2,5-oxadiazole-3-carboxamide] | 8070 | – | –
15 | CNC(=O)C1(N2CC3(CC3)CNC2=O)Cc2ccc(NC(=O)[C@@H](NC(=O)c3ccn(C4CC(O)C4)n3)C3CCCCC3)cc2C1 (stereo partly drawn) [Example 133, N-((1S)-1-cyclohexyl-2-((2-(methylcarbamoyl)-2-(6-oxo-5,7-diazaspiro[2.5]octan-5-yl)-2,3-dihydro-1H-inden-5-yl)amino)-2-oxoethyl)-1-(3-hydroxycyclobutyl)-1H-pyrazole-3-carboxamide] | 320 | – | –
16 | CNC(=O)C1(N2C[C@@H](C(C)C)NC2=O)Cc2ccc(NC(=O)[C@@H](Nc3nc4ccccc4o3)C3CCCCC3)cc2C1 (stereo partly drawn) [Example 77, 5-((S)-2-(benzo[d]oxazol-2-ylamino)-2-cyclohexylacetamido)-2-((R)-4-isopropyl-2-oxoimidazolidin-1-yl)-N-methyl-2,3-dihydro-1H-indene-2-carboxamide] | 490 | – | –
